SMILES strings stand for the structures.

Holding throughout (format): cell-based, human
The test system of assay [1] is IL13Rα2-Fc activated CAR-T cells. The assay is described as follows: Intranuclear β-catenin accumulation by flow cytometry. As to conditions: 36-48 hours. Here is the method: Purified rat anti-human IL13 antibody and allophycocyanin (APC)-conjugated anti-rat antibody was used to measure IL13CAR expression. Anti-human CD3-FITC was used in certain experiments for identifying T cells. For CD4:CD8 analysis of IL13CAR-T cells, anti-human CD4-FITC and anti-human CD8-PE.Cy7 were used in CAR-T cells that were positive for IL13CAR expression. FasL expression and PD-1 expression on activated IL13CAR-T cells was measured by staining with anti-human FasL-FITC (Thermo-Fisher) anti-human PD1-FITC respectively. Anti-human CD127-FITC, anti-human CD62L-PE, Anti-human CCR7-FITC anti-human CD45RO-PE and anti-human CD45RA-PE.Cy7 were used for flow cytometric measurement of T cell memory marker. Respective isotype controls or antibody controls (where applicable) were used to draw positive gates for each experiment. All antibodies were procured from either BD Biosciences or eBisociences. […]
Experiments were conducted to understand the molecular mechanism of GSK3β-inhibition on activated T cell expansion. […] IL13Rα2-Fc activated CAR-T cells were treated with or without SB216763 for 36-48 hours and measured for intra-nuclear accumulation of β-catenin by flow cytometry. […]

In assay [2] the test system is IL13Rα2-activated IL13CAR-T cells. The assay is described as follows: Flow cytometry of T-bet and PD-1 expression. As to the method:
(§1) Purified rat anti-human IL13 antibody and allophycocyanin (APC)-conjugated anti-rat antibody was used to measure IL13CAR expression. Anti-human CD3-FITC was used in certain experiments for identifying T cells. For CD4:CD8 analysis of IL13CAR-T cells, anti-human CD4-FITC and anti-human CD8-PE.Cy7 were used in CAR-T cells that were positive for IL13CAR expression. FasL expression and PD-1 expression on activated IL13CAR-T cells was measured by staining with anti-human FasL-FITC (Thermo-Fisher) anti-human PD1-FITC respectively. Anti-human CD127-FITC, anti-human CD62L-PE, Anti-human CCR7-FITC anti-human CD45RO-PE and anti-human CD45RA-PE.Cy7 were used for flow cytometric measurement of T cell memory marker. Respective isotype controls or antibody controls (where applicable) were used to draw positive gates for each experiment. All antibodies were procured from either BD Biosciences or eBisociences. For intranuclear staining of β-catenin localization, nuclear permeabilization of CAR-T cells was achieved using FoxP3 staining buffer (eBioscience-Affymetrix, San Diego, Calif.) and staining with anti-human β-catenin rabbit mAb (Cell Signaling Technologies, Danvers Mass.) and anti-rabbit IgG conjugated with Alexa Fluor (AF) 488 or 647 (Cell Signaling Technologies).
(§2) GSK3 inhibition reduces PD-1 mediated T cells exhaustion, which is dependent on T-bet expression (Taylor et al., Immunity 44: 274-286. 2016), and GSK3β pathway directly regulates T-bet expression in activated T cells (Verma et al., J Immunol 197: 108-118, 2016). Significant survival advantage of GSK3β inhibition in activated T cells prompted us to study T-bet and PD-1 expression in IL13Rα2-activated IL13CAR-T cells.
For orientation: In flow cytometry, cells or beads pass a laser one at a time.

Assay [3] relates to IL13Rα2-Fc activated IL13CAR-T cells. Nature of the assay: T cell survival assay (viability by flow cytometry, live-dead gating, 14 days). As to conditions: SB216763 20 μM, IL13Rα2-Fc 1 μg/ml, absence of added IL2. As to the method:
Untransduced or IL13CAR-T cells (1×10^6) were activated with IL13Rα2-Fc chimera at specific concentrations in 24 well plates, with or without GSK3β inhibitor (SB216763, 20 μM; Sigma, St Louis, Mo.) or added IL2 in the culture medium. IL13CAR-T cell survival assays were performed as described above for 14 days. Long-time survival of IL13CAR-T cells following GSK3β inhibition was measured by flow cytometry using live-dead gating (Sengupta et al., Immunobiology 210: 647-659, 2005). Activated T cell death (ATCD) was measured by flow cytometric reading of FasL expression (FITC; Thermo-Fisher) on activated IL13CAR-T cells.
IL13CAR-T cells (32% CAR+) were cultured for 14 days in the presence of soluble IL13Rα2-Fc (1 μg/ml) and GSK3β inhibitor (SB216763; 20 μM) in RPMI1640 medium supplemented with 10% FBS and antibiotics, with or without added IL2. Cells were harvested at days 1, 4, 7, 10 and 14 and stained for CD3 and IL13CAR expression, and viability of cells were measured by flow cytometry and analyzed for viability as described earlier. […] The loss in viability was rescued by addition of IL2 in culture conditions (FIG. 1A; Top Panel; close squares) or inhibition of GSK3β with SB216763 in absence of added IL2 (FIG. 1A; Bottom Panel; open squares). […] To confirm this phenomenon FasL expression was measured in IL13Rα2-Fc treated CAR-T cells at day 14. […]

Assay [4] shares this test system. Nature of the assay: qPCR of TBX21, PDCD1 and IFNG genes. As to conditions: normalized to GAPDH. Here is the method:
Total RNA was isolated from IL13CAR-T cells using the RNeasy Mini Kit according to the manufacturer's protocol (Qiagen). cDNA was prepared from RNA using iScript cDNA Synthesis Kit (Biorad, Carlsbad, Calif.). qPCR was performed targeting IFNG, TBX21, and PDCD1 genes using SyBR Green PCR master Mix (Applied Biosystems). CT values of target genes were normalized to that of housekeeping gene GAPDH, and relative gene expression was calculated using ΔΔCT method.
as §2
A general note: Real-time PCR tracks product formation cycle by cycle.

Assay [5] shares this test system. Nature of the assay: Activated T cell death (ATCD): flow cytometric FasL expression. As to the method: Purified rat anti-human IL13 antibody and allophycocyanin (APC)-conjugated anti-rat antibody was used to measure IL13CAR expression. Anti-human CD3-FITC was used in certain experiments for identifying T cells. For CD4:CD8 analysis of IL13CAR-T cells, anti-human CD4-FITC and anti-human CD8-PE.Cy7 were used in CAR-T cells that were positive for IL13CAR expression. FasL expression and PD-1 expression on activated IL13CAR-T cells was measured by staining with anti-human FasL-FITC (Thermo-Fisher) anti-human PD1-FITC respectively. […]
Untransduced or IL13CAR-T cells (1×10^6) were activated with IL13Rα2-Fc chimera at specific concentrations in 24 well plates, with or without GSK3β inhibitor (SB216763, 20 μM; Sigma, St Louis, Mo.) or added IL2 in the culture medium. […] Long-time survival of IL13CAR-T cells following GSK3β inhibition was measured by flow cytometry using live-dead gating (Sengupta et al., Immunobiology 210: 647-659, 2005). Activated T cell death (ATCD) was measured by flow cytometric reading of FasL expression (FITC; Thermo-Fisher) on activated IL13CAR-T cells.
IL13CAR-T cells (32% CAR+) were cultured for 14 days in the presence of soluble IL13Rα2-Fc (1 μg/ml) and GSK3β inhibitor (SB216763; 20 μM) in RPMI1640 medium supplemented with 10% FBS and antibiotics, with or without added IL2. […] To confirm this phenomenon FasL expression was measured in IL13Rα2-Fc treated CAR-T cells at day 14. […]

Assay [6] shares this test system. Nature of the assay: T cell memory marker expression by flow cytometry. As to conditions: 7 days. Here is the method: as §1
Experiments were conducted to test the effects of SB216763 treatment on memory generation in IL13Rα2-Fc activated IL13CAR-T populations. IL13CAR-T cells were activated with increasing concentrations of IL13Rα2-Fc (0-1 μg/ml) in the presence or absence of SB216763 for 7 days. Cell surface expression of T cell memory markers were measured by flow cytometry. Since memory generation was monitored as a functional derivative of CD8+ T cells, experiments were conducted to additionally measure the intracellular expression of IL7R (CD127) expression as a marker of CD8+ memory CAR-T cell homeostasis.

For another assay, the system named is IL13CAR-T cells. Nature of the assay: CFSE dilution T cell proliferation assay. As to conditions: 72 hours. As to the method:
Carboxyfluorescein succinimidyl ester (CFSE; 0.5 μg/ml; Invitrogen) was used to measure T cell proliferation by flow cytometry.
To further understand the mechanism, CAR-T cells were stained with CFSE and were cultured either unstimulated or treated with IL13Rα2-Fc±SB216763 for 72 hours. CFSE is a fluorescent cell staining dye and can be used to monitor lymphocyte proliferation, both in vitro and in vivo, due to the progressive halving of CFSE fluorescence within daughter cells following each cell division (Lyons et al., Journal of immunological methods 171: 131-137, 1994).

On to `Cn1cc(C2=C(c3ccc(Cl)cc3Cl)C(=O)NC2=O)c2ccccc21` [SB216763, 3-(2,4-Dichlorophenyl)-4-(1-methyl-1H-indol-3yl)-1H-pyrrole-2,5-dione], for which, in assay [1] (SB216763 treated), the “nuclear β-catenin MFI” value worked out at 1618 MFI. The “increased accumulation of β-catenin in the nucleus” value in assay [1] (versus untreated activated CAR-T cells) amounted to 66%. The “T-bet expression (FACS)” value in assay [2] (activated IL13CAR-T cells, GSK3β inhibition) is on record as “significant upregulation”. For the same compound, the “frequency of PD-1+ IL13CAR-T cells” value in assay [2] (activated, GSK3β inhibited) stood at 17.3%. Further, the “reduction in PD-1 expression” value in assay [2] (versus activated IL13CAR-T cells not treated) is reported as 60%. Also, in assay [3], the “loss in viability of activated IL13CAR-T cells” value is on record as “rescued”. Further, in assay [4], the “decrease in PDCD1 (PD-1) gene expression” value stood at 5 fold and the “increase in TBX21 (T-bet) gene expression” value stood at 90 fold. The “frequency of activated CAR-T cells expressing FasL” value in assay [5] (day 14, SB216763 treated) is given as 25.3%. The “reduction of FasL expression” value in assay [5] (day 14, versus activated CAR-T cells not treated with the inhibitor) is 55%. Also, in assay [6], the CCR7 expression result is “no difference”, the CD45RA expression result is recorded as “no difference” and the CD62L expression result is listed as “complete inhibition”. In assay [6] (IL13Rα2-Fc 0-1 μg/ml), the “increase in CD45RO” value is reported as 4 fold and the “increase in CD127” value was found to be 10 fold. For the same compound, in the assay on IL13CAR-T cells, the “proliferation of IL13Rα2-Fc activated CAR-T cells” value is “increased proliferation” and the “proliferation of unstimulated CAR-T cells” value is listed as “no such efforts”.

Values taken from patent publication US20200289566A1, “COMPOSITIONS FOR IMPROVING CAR-T CELL FUNCTIONALITY AND USE THEREOF” (PROSPECT CHARTERCARE RWMC, LLC D/B/A ROGER WILLIAMS MEDICAL …, priority 2017, published 2020).
